Data from US6039931A, “Derivatized DTPA complexes, pharmaceutical agents containing these compounds, their use, and processes for their production” (Schering Aktiengesellschaft, priority 1989, dated 2000).

How the values were obtained:
[1] = test system: female rats of the strain Lew/Mol; assay: in vivo MRI imaging (T1-weighted spin echo, 2 tesla) after i.v. administration, 3 compounds; parameters: species or system rat (Lew/Mol); details: 0.1 mmol Gd/kg i.v.
Description: The test animals were female rats of the strain Lew/Mol weighing 160-180 g. Prior to imaging, the animals were anesthetized ("Rompun"+"Ketavet") and provided with a catheter in the caudal vein to administer the contrast medium. Imaging took place in an MRI experimental device by General Electric (field strength 2 tesla). First of all, the images (7, 9, 11) were made without contrast medium with a T1 -weighted spin echo sequence (TR=400 msec, TE=20 msec, axial section plane, layer thickness 3 mm). The liver appears in each case with the normal signal intensity; the stomach is […] in tendency than the liver. […] This is due to feed residues, the feed containing manganese in relatively high concentrations (at the time of the test, the animals had been fasting for 6 hours) . Animal 3 had been implanted with an osteogenic sarcoma three weeks previously; this sarcoma was of equal contrast in the blank image and could not be defined. The administration of contrast medium took place via the venous catheter with a dose of 0.1 mmol Gd/kg (concentration of the solutions 0.05 mmol Gd/ml in 0.9% NaCl) for all 3 compounds.

[2] = T1 relaxation (relaxivity) in water and in plasma; format: physicochemical
[3] = test system: male hairless rat (Lew/Mol), Brown Pearce tumor; assay: in vivo NMR imaging (spin echo, 2 tesla) after i.v. administration, rat with Brown Pearce tumor in the thigh; details: 0.06 mmol/kg i.v.
Description: Spin echo scans were made with the NMR tomograph (CSI 2 T) at 2 tesla (TR time of 400 ms and TE time of 20 ms).

[4] = test system: female rats of the strain Lew/Mol; details: at this point in time after administration; commercial contrast medium; cited from earlier work

## CCOc1ccc(CC(CN(CCN(CC(=O)[O-])CC(=O)[O-])CC(=O)[O-])N(CC(=O)[O-])CC(=O)[O-])cc1.[Gd+3].[Na+].[Na+] (stereo not drawn) [Example 8(c), Disodium Salt of the Gadolinium Complex of 3,6,9-Triaza-3,6,9-tris(carboxymethyl)-4-(4-ethoxybenzyl)undecanedioic Acid]
[1]
  enhancement of the stomach, ranking among the 3 compounds: least
[1]; after 90 minutes
  enhancement of the liver: A marked enhancement of the liver

## CCCCOc1ccc(CC(CN(CCN(CC(=O)[O-])CC(=O)[O-])CC(=O)[O-])N(CC(=O)[O-])CC(=O)[O-])cc1.[Gd+3].[Na+].[Na+] (stereo not drawn) [Example 9(c), Disodium Salt of the Gadolinium Complex of 3,6,9-Triaza-3,6,9-tris(carboxymethyl)-4-(4-butoxybenzyl)undecanedioic Acid]
[1]; after 60 minutes
  enhancement of the liver: A marked enhancement of the liver
[2]; in plasma
  T1 relaxation: 14.20 ± 0.98 mmol⁻¹ s⁻¹
[2]; in water
  T1 relaxation: 5.80 ± 0.26 mmol⁻¹ s⁻¹

## COc1ccc(CC(CN(CCN(CC(=O)[O-])CC(=O)[O-])CC(=O)[O-])N(CC(=O)[O-])CC(=O)[O-])cc1.[Gd+3].[Na+].[Na+] (stereo not drawn) [Example 1(c) disodium salt, Gadolinium Complex of 3,6,9-Triaza-3,6,9-tris(carboxymethyl)-4-(4-methoxybenzyl)undecanedioic Acid]
[3]; 1 minute after administration
  enhancement in the urinary bladder: the first enhancement is already apparent in the urinary bladder
[3]; 45 minutes after injection
  increase in contrast in the stomach: A strong increase in contrast is visible in the stomach
[3]; 60 minutes after injection
  visualization of the tumor, of the urinary bladder, and of the stomach: A good visualization of the tumor (at the level of the reference tube) of the urinary bladder, and of the stomach
[3]; 60 minutes, further improved 65 minutes after injection in a different layer
  contrasting of the renal pelvis: Contrasting of the renal pelvis is also striking
[3]; 180 minutes after injection
  contrast enhancement in an axial scan in the zone of the liver: the contrast enhancement is likewise clearly recognizable

## O=C([O-])CN(CCN(CC(=O)[O-])CC(Cc1ccc(OCc2ccccc2)cc1)N(CC(=O)[O-])CC(=O)[O-])CC(=O)[O-].[Gd+3].[Na+].[Na+] (stereo not drawn) [Example 10(c), Disodium Salt of the Gadolinium Complex of 3,6,9-Triaza-3,6,9-tris(carboxymethyl)-4-(4-benzyloxybenzyl)undecanedioic Acid]
[1]
  enhancement of the stomach, ranking among the 3 compounds: most strongly
[1]; after 60 minutes
  enhancement of the liver: A marked enhancement of the liver
[1]; animal 3, 60 minutes
  absorption of the contrast medium by the tumor (implanted osteogenic sarcoma): has not absorbed the contrast medium at all, or only to a lesser proportion
  visibility of the tumor (implanted osteogenic sarcoma): the tumor is now additionally clearly visible

## CNC[C@H](O)[C@@H](O)[C@H](O)[C@H](O)CO.CNC[C@H](O)[C@@H](O)[C@H](O)[C@H](O)CO.O=C([O-])CN(CCN(CC(=O)[O-])CC(=O)O)CCN(CC(=O)[O-])CC(=O)O.[Gd+3] [Magnevist, dimeglumine salt of Gd DTPA [gadolinium(III)complex of diethylenetriaminepentaacetic acid]]
[4]
  enhancement of the liver (uptake by the hepatocytes), comparison: cannot be observed at this point in time after administration
